Tests used:
Calu6 = assay: Cell proliferation assay (CellTiter-Glo); assay type: cell-based; details: Homo sapiens, Calu-6; NSCLC; 72 hours, 0.5% fetal bovine serum; read-out: antiproliferative activity IC50, Calu6
Experimental: (§1) Cell Proliferation Assay:
(§2) Cancer cell lines were plated at 5,000 to 10,000 per well in 96-well flat bottomed plates with various concentration of compounds. The cells were incubated with compounds for 72 hours in the presence of 0.5% of fetal bovine serum. Growth inhibition was accessed by adenosine triphosphate (ATP) content assay using Promega CellTiter-Glo kit. Promega CellTiter-Glo kit is an ATP monitoring system based on firefly luciferase. Briefly, 16 μl of mammalian cell lysis and substrate solution was added to 84 μl of culture medium per well to lyse the cells and stabilize the ATP. The mixture was shaken and incubated for 30 minutes and subsequently the luminescence was measured.

WiDr = assay: Cell proliferation assay (CellTiter-Glo); assay type: cell-based; details: Homo sapiens, Colon, 72 hours, 0.5% fetal bovine serum, read-out: antiproliferative activity IC50, WiDr
Experimental: as §1, §2

OPM-2 = assay: Cell proliferation assay (CellTiter-Glo); assay type: cell-based; details: Homo sapiens, Multiple Myeloma, 72 hours, 0.5% fetal bovine serum, read-out: antiproliferative activity IC50, OPM-2
Experimental: as §1, §2

CaPan1 = assay: Cell proliferation assay (CellTiter-Glo); assay type: cell-based; details: Homo sapiens, CAPAN-1; Pancreas; 72 hours, 0.5% fetal bovine serum; read-out: antiproliferative activity IC50, CaPan1
Experimental: as §1, §2

MiaPaca1 = assay: Cell proliferation assay (CellTiter-Glo); assay type: cell-based; details: Pancreas; 72 hours, 0.5% fetal bovine serum; read-out: antiproliferative activity IC50, MiaPaca1
Experimental: as §1, §2

CaPan2 = assay: Cell proliferation assay (CellTiter-Glo); assay type: cell-based; details: Homo sapiens, Capan-2; Pancreas; 72 hours, 0.5% fetal bovine serum; read-out: antiproliferative activity IC50, CaPan2
Experimental: as §1, §2

MDA-MB-231 = assay: Cell proliferation assay (CellTiter-Glo); assay type: cell-based; details: Homo sapiens, Breast, 72 hours, 0.5% fetal bovine serum, read-out: antiproliferative activity IC50, MDA-MB-231
Experimental: as §1, §2

SW1990 = assay: Cell proliferation assay (CellTiter-Glo); assay type: cell-based; details: Homo sapiens, Pancreas, 72 hours, 0.5% fetal bovine serum, read-out: antiproliferative activity IC50, SW1990
Experimental: as §1, §2

CFPAC-1 = assay: Cell proliferation assay (CellTiter-Glo); assay type: cell-based; details: Homo sapiens, Pancreas, 72 hours, 0.5% fetal bovine serum, read-out: antiproliferative activity IC50, CFPAC-1
Experimental: as §1, §2

PANC-1 = assay: Cell proliferation assay (CellTiter-Glo); assay type: cell-based; details: Homo sapiens, Pancreas, 72 hours, 0.5% fetal bovine serum, read-out: antiproliferative activity IC50, PANC-1
Experimental: as §1, §2

[1] = system: HDACs (HeLa cell nuclear extracts); assay: HDAC enzymatic activity, Biomol Color de Lys system; assay type: biochemical; details: 1 hour, 25° C.
Summary of the method: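 HeLa nuclear extract incubated with serially diluted compound and […] artificial substrate in 50 mM Tris/Cl pH 8.0, 137 mM NaCl, 2.7 mM KCl, 1 mM MgCl2. Run 1 h at 25 °C, stopped with developer. Fluorescence read (ex 350-380, em 440-460 nm); IC50 from sigmoidal dose-response fit.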

[2] = biological target: T1, mTor serine/threonine protein kinase (Homo sapiens, UniProt P42345); assay: mTor kinase radioisotope assay; assay type: biochemical; details: 70 uM ATP, 40 minutes; read-out: m-TOR IC50
T1 construct: FLAG; made in house; host or cells: Baculovirus expression system in Sf21 cells
Summary of the method: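 FLAG-tagged full-length recombinant human mTor from baculovirus/Sf21, incubated with p70S6K C-terminal fragment (2 mg/ml) and 70 uM ATP plus 33P-ATP tracer in 50 mM HEPES pH 7.5, 3 mM MnCl2, 40 min at room temperature. Phosphoric acid stop, filtermat capture, scintillation counting; IC50 from sigmoidal dose-response fit.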

PI3Kα (p110α/p85α) = biological target: T2, PI3Kα (p110α/p85α) (Homo sapiens, UniProt P42336); assay: PI3Kα ADP-Glo assay; assay type: biochemical; details: 20 μM PIP2, 10 μM ATP, 30 minutes
T2 construct: GST (N); made in house; host or cells: Baculovirus-infected Sf9 cells
Summary of the method: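 Recombinant full-length human GST-p110α/His-p85α, co-expressed in Sf9 cells, was incubated 30 min at room temperature with 20 μM PIP2 and 10 μM ATP. The buffer was 50 mM HEPES pH 7.4, 150 mM NaCl, 5 mM MgCl2, 1 mM DTT, 3 µM orthovanadate and 0.5% DMSO. ADP formed was detected by ADP-Glo luminescence.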

PI3Kδ (p110δ/p85α) = biological target: T3, PI3Kδ (p110δ/p85α) (Homo sapiens, UniProt O00329); assay: PI3Kδ ADP-Glo assay; assay type: biochemical; details: 20 μM PIP2, 10 μM ATP, 90 minutes
T3 construct: GST (N); made in house; host or cells: Baculovirus-infected Sf9 cells
Experimental: (c) an In Vitro Assay which Determines the Ability of a Test Compound to Inhibit PI3Kδ.
(§3) Activity of PI3Kδ was measured using ADP-Glo assay from Promega. PI3Kδ, a complex of N-terminal GST-tagged recombinant full-length human p110δ (GenBank, Accession No. NM_005026) and untagged recombinant full length human p85α (GenBank Accession No. XM—043865) were co-expressed in a Baculovirus infected Sf9 cell expression system. The ADP-Glo assay was performed to measure the amount of ADP generated from ATP hydrolysis coupled with PIP2 phosphorylation by the purified recombinant PI3Kδ (p110δ/p85α). PI3Kδ was incubated with 20 μM PIP2 substrate in the reaction buffer (10 mM Tris-HCl, pH 7.5, 50 mM NaCl, 5 mM MgCl2, 10 μM ATP and 0.5% DMSO) for 90 minutes at room temperature. The ADP generated was then detected by ADP-Glo assay from Promega, a luminescent ADP detection assay. The ADP-Glo assay is performed in two steps; first, after the kinase reaction, ADP-Glo Reagent is added to terminate the kinase reaction and deplete the remaining ATP. Second, the Kinase Detection Reagent is added to simultaneously convert ADP to ATP and allow the newly synthesized ATP to be measured using a luciferase/luciferin reaction.

PI3Kγ (p120γ) = biological target: T4, PI3Kγ (p120γ) (Homo sapiens, UniProt P48736); assay: PI3Kγ ADP-Glo assay; assay type: biochemical; details: 20 μM PIP2, 10 μM ATP, 90 minutes
T4 construct: His (N); made in house; host or cells: Baculovirus-infected Sf9 cells
Experimental: (d) an In Vitro Assay which Determines the Ability of a Test Compound to Inhibit PI3Kγ.
Activity of PI3Kγ was measured using ADP-Glo assay from Promega. PI3Kγ, N-terminal His-tagged recombinant full-length human p120γ (GenBank, Accession No. AF327656) was expressed in a Baculovirus infected Sf9 cell expression system. The ADP-Glo assay was performed to measure the amount of ADP generated from ATP hydrolysis coupled with PIP2 phosphorylation by the purified recombinant PI3Kγ […]. PI3Kγ was incubated with 20 μM PIP2 substrate in the reaction buffer (10 mM Tris-HCl, pH 7.5, 50 mM NaCl, 5 mM MgCl2, 10 μM ATP and 0.5% DMSO) for 90 minutes at room temperature. The ADP generated was then detected by ADP-Glo assay from Promega, a luminescent ADP detection assay. The ADP-Glo assay is performed in two steps; first, after the kinase reaction, ADP-Glo Reagent is added to terminate the kinase reaction and deplete the remaining ATP. Second, the Kinase Detection Reagent is added to simultaneously convert ADP to ATP and allow the newly synthesized ATP to be measured using a luciferase/luciferin reaction.

PI3Kβ (p110β/p85α) = biological target: T5, PI3Kβ (p110β/p85α) (Homo sapiens, UniProt P42338); assay: PI3Kβ ADP-Glo assay; assay type: biochemical; details: 20 μM PIP2, 10 μM ATP, 90 minutes
T5 construct: His (N); made in house; host or cells: Baculovirus-infected Sf9 cells
Experimental: (B) an In Vitro Assay which Determines the Ability of a Test Compound to Inhibit PI3Kβ.
as §3, with “PI3Kβ” for “PI3Kδ”, “[…],” for “PI3Kδ,”, “His-tagged” for “GST-tagged”, “p110β” for “p110δ”, “NM_006219)” for “NM_005026)”, “PI3Kβ (p110β/p85α). PI3Kβ” for “PI3Kδ (p110δ/p85α). PI3Kδ”

SWI-116 = assay: Cell proliferation assay (CellTiter-Glo); assay type: cell-based; details: Colon; 72 hours, 0.5% fetal bovine serum; read-out: antiproliferative activity IC50, SWI-116
Experimental: as §1, §2

T2 sequence (P42336 whole entry): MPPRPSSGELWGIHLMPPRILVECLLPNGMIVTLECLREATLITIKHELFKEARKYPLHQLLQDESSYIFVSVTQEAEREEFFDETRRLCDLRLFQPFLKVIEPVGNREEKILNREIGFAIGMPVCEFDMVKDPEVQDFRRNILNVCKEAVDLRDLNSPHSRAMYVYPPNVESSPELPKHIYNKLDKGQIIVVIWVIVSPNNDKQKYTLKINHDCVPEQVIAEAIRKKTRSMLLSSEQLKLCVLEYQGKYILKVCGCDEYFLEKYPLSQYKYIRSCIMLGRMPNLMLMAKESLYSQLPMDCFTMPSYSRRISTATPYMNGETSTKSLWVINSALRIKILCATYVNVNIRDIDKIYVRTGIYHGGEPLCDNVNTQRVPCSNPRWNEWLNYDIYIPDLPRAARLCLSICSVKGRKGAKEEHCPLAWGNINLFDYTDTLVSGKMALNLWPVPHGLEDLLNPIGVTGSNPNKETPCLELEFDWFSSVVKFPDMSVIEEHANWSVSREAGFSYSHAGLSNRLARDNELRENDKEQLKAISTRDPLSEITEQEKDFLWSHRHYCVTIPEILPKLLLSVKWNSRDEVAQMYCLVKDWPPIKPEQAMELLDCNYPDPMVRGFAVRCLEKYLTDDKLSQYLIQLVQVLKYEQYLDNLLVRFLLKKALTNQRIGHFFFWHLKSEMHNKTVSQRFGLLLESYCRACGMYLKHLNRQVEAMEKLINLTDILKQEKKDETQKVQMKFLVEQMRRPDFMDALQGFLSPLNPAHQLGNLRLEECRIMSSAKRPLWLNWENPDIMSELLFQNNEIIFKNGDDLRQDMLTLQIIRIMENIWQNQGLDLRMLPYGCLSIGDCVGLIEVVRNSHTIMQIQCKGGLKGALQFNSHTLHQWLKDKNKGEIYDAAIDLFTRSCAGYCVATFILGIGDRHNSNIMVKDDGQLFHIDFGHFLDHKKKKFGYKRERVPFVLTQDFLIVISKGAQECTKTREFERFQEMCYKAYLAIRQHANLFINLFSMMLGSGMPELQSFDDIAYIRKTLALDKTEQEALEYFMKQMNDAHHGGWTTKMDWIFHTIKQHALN
T2 sequence (P27986 whole entry partner): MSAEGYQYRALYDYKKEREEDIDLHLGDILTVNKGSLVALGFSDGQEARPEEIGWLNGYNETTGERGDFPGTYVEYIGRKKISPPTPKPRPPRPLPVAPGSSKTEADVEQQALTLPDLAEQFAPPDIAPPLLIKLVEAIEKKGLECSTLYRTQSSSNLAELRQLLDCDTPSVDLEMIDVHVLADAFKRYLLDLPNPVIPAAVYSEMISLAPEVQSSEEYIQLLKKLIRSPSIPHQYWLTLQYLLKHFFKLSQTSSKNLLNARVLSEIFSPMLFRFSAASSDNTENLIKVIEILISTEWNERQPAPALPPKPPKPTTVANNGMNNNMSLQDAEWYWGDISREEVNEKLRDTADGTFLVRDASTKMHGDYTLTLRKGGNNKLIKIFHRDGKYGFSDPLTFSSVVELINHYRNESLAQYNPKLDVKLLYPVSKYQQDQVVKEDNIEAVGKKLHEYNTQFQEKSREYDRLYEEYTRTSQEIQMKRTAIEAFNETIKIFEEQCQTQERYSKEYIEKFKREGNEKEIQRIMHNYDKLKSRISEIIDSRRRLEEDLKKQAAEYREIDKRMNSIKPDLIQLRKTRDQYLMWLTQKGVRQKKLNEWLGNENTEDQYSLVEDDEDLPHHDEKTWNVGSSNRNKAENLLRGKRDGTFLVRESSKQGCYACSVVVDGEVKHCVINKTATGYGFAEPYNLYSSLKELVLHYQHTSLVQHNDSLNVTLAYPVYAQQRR
T5 sequence (P42338 whole entry): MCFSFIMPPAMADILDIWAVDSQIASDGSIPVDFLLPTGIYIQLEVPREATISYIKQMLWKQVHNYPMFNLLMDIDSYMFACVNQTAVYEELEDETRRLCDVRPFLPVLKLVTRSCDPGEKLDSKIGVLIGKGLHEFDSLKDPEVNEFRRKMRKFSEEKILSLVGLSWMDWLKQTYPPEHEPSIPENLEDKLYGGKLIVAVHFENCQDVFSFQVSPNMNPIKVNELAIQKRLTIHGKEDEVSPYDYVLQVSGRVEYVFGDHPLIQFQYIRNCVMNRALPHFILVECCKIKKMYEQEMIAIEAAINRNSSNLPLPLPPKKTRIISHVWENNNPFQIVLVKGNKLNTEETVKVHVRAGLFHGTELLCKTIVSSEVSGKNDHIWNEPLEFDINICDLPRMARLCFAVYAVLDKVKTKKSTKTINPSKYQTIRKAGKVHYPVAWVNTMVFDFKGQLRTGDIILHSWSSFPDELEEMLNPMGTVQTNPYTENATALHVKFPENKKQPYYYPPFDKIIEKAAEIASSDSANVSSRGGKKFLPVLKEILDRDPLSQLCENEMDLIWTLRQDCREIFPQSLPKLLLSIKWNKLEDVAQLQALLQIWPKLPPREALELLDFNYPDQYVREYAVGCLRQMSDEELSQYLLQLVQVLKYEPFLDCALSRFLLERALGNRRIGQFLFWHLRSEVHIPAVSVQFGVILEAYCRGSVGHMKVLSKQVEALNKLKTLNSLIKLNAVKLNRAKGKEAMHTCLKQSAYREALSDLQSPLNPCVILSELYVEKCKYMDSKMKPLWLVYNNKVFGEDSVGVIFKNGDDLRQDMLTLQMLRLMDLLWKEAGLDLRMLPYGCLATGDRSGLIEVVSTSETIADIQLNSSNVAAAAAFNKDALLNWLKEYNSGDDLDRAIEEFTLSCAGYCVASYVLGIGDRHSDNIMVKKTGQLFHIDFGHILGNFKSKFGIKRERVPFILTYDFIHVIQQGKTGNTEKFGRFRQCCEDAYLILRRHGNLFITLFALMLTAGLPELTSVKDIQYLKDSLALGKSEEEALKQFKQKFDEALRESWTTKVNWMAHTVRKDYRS
T5 sequence (P27986 whole entry partner): as the sequence (P27986 whole entry partner) above
T3 sequence (O00329 whole entry): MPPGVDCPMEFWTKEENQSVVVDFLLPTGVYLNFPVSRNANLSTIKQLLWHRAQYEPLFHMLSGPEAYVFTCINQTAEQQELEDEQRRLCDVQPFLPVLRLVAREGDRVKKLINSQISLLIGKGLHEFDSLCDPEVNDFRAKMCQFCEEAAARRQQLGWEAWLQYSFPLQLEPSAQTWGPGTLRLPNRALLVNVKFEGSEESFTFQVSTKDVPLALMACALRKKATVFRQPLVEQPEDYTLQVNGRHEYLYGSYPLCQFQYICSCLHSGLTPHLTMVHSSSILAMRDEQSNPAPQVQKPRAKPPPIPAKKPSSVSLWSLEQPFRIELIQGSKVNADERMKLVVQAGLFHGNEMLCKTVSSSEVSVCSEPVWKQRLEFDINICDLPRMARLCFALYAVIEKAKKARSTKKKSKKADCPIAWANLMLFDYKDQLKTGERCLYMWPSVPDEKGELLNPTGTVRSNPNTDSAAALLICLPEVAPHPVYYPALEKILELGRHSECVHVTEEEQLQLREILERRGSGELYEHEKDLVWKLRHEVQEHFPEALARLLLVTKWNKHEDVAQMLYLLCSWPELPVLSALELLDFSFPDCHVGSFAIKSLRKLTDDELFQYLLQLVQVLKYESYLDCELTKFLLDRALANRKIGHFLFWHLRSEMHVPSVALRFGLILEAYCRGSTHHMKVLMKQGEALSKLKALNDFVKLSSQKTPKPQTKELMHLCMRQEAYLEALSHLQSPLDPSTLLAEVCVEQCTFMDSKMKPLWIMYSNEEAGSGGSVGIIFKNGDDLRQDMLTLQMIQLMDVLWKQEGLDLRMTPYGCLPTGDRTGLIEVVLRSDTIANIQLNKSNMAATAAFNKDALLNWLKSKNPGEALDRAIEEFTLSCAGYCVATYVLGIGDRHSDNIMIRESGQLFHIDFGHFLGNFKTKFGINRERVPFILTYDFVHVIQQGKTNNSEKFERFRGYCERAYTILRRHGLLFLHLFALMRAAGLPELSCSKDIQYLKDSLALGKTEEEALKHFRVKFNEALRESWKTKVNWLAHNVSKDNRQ
T3 sequence (P27986 whole entry partner): as the sequence (P27986 whole entry partner) above
T4 sequence (P48736 whole entry): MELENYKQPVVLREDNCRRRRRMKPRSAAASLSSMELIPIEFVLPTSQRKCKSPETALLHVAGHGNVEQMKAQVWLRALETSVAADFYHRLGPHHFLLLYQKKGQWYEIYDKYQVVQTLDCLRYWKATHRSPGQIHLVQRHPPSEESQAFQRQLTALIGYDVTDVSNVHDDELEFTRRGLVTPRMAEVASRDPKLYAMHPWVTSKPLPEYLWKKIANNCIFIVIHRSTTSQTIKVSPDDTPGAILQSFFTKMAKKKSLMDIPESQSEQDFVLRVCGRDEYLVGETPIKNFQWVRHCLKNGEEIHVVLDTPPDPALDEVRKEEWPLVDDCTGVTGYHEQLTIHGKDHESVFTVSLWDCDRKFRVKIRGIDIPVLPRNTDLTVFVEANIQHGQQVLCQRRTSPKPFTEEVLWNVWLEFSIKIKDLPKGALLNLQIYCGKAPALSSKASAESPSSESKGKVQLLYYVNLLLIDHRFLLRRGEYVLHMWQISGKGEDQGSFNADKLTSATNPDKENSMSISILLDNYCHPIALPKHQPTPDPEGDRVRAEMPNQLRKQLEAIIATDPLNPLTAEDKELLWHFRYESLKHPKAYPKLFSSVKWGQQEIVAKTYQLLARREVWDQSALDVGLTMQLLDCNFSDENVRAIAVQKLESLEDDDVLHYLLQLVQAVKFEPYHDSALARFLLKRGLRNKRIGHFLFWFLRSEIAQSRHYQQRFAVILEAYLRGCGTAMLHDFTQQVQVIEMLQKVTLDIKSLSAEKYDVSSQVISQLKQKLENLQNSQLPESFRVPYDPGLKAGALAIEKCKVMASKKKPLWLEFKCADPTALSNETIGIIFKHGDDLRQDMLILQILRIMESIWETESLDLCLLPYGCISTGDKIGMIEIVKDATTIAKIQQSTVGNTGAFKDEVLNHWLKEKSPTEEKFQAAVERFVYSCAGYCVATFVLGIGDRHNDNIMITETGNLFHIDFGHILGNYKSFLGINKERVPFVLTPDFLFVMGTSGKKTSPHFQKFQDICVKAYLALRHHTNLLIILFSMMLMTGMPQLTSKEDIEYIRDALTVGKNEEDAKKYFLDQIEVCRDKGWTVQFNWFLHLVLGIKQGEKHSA

| Structure (SMILES) | IC50 (Calu6) [µM] | IC50 (WiDr) [µM] | IC50 (OPM-2) [µM] | IC50 (CaPan1) [µM] | IC50 (MiaPaca1) [µM] | IC50 (CaPan2) [µM] | IC50 (MDA-MB-231) [µM] | IC50 (SW1990) [µM] | IC50 (CFPAC-1) [µM] | IC50 (PANC-1) [µM] | IC50 [1] [µM] | IC50 [2] [µM] | IC50 (PI3Kα (p110α/p85α)) [µM] | melting point [°C] | IC50 (PI3Kδ (p110δ/p85α)) [µM] | IC50 (PI3Kγ (p120γ)) [µM] | IC50 (PI3Kβ (p110β/p85α)) [µM] | IC50 (SWI-116) [µM] |
| --- | --- | --- | --- | --- | --- | --- | --- | --- | --- | --- | --- | --- | --- | --- | --- | --- | --- | --- |
| CN(Cc1cc2nc(-c3cccc(CO)c3)nc(N3CCOCC3)c2s1)c1ncc(C(=O)NO)cn1 [Compound 138, N-hydroxy-2-(((2-(3-(hydroxymethyl)phenyl)-4-morpholinothieno[3,2-d]pyrimidin-6-yl)methyl)(methyl)amino)pyrimidine-5-carboxamide] | 0.01 to 0.1 | 0.01 to 0.1 | < 0.01 | 0.01 to 0.1 | 0.01 to 0.1 | 0.01 to 0.1 | 0.01 to 0.1 | 0.01 to 0.1 | 0.01 to 0.1 | 0.01 to 0.1 | < 0.1 | < 0.1 | < 0.1 | 160 to 164 |  |  |  |  |
| O=C(NO)c1cnc(N2CCN(Cc3cc4nc(-c5cccc6[nH]ncc56)nc(N5CCOCC5)c4s3)CC2)nc1 [Compound 14] |  |  |  |  |  |  |  |  |  |  | < 0.1 | 1 to 10 | < 0.1 | 209 to 221 | 0.1 to 1 | < 0.1 | < 0.1 |  |
| O=C(NO)c1cnc(NCc2cc3nc(-c4cccc5[nH]ncc45)nc(N4CCOCC4)c3s2)nc1 [Compound 53, 2-((2-(1H-indazol-4-yl)-4-morpholinothieno[3,2-d]pyrimidin-6-yl)methylamino)-N-hydroxypyrimidine-5-carboxamide] |  |  |  |  |  |  |  |  |  |  | < 0.1 |  | < 0.1 | 234 to 237 | < 0.1 | < 0.1 | < 0.1 |  |
| Cn1c(=O)n(-c2ccc(C(C)(C)C#N)cc2)c2c3cc(-c4cnc5ccccc5c4)ccc3ncc21 [BEZ-235, 2-methyl-2-(4-(3-methyl-2-oxo-8-(quinolin-3-yl)-2,3-dihydro-1H-imidazo[4,5-c]quinolin-1-yl)phenyl)propanenitrile, reference compound] | 0.1 to 1 | 1 to 10 |  | 0.1 to 1 | 1 to 10 | 1 to 10 | > 10 | 0.01 to 0.1 | 1 to 10 | 1 to 10 |  |  |  |  |  |  |  |  |
| CC(c1cc2nc(-c3cccc4[nH]ncc34)nc(N3CCOCC3)c2s1)N(C)c1ncc(C(=O)NO)cn1 (stereo not shown) [Compound 70] |  |  |  |  |  |  |  |  |  |  | < 0.1 | 0.1 to 1 | < 0.1 |  |  |  |  | 0.01 to 0.1 |
